Values of other authors in patent US20030134851A1, “Methods and compositions for providing glutamine” (priority 2001, published 2003).

Conditions: rodents; cited from earlier work

SMILES: O=C1CC[C@@H](C(=O)O)N1 [pyroglutamic acid]
- Neurotoxicity: is a neurotoxin in rodents
